This is an account of results in ChEMBL document CHEMBL5126545, “Development of inhibitors targeting glycogen synthase kinase-3β for human diseases: Strategies to improve selectivity” (Eur J Med Chem, 2022).

The target of experiment [1] is T1, Glycogen synthase kinase-3 beta (Homo sapiens, UniProt P49841). The experiment in a line: Inhibition of GSK-3beta (unknown origin).
A short description of experiment [2]: Inhibition of GSK-3beta (unknown origin) using GS-1 as substrate incubated for 20 mins.
Experiment [3] is described as follows: Inhibition of CDK-1/cyclin B (unknown origin) using histone H1 as substrate incubated for 20 mins by liquid scintillation counter analysis. Details: species or system Homo sapiens.
A short description of experiment [4]: Inhibition of bovine heart PKA using stathmin as substrate incubated for 20 mins by liquid scintillation counter analysis. More on the design: species or system Bos taurus.
Experiment [5] in a line: Inhibition of bovine brain CK2 using stathmin as substrate. More on the design: species or system Bos taurus.
In a further experiment the target is Protein kinase C (PKC). Put plainly: Inhibition of rat brain PKC using peptide PANKTPPKSPGEPAK as substrate incubated for 20 mins in presence of phosphatidyl serine.
Experiment [6] addresses T1, Glycogen synthase kinase-3 beta. The experiment in a line: Inhibition of GSK3-beta (unknown origin) by Kinase-Glo Max assay kit.
Experiment [7] shares this target. The experiment in a line: Inhibition of GSK-3beta (unknown origin) using biotin-labelled IRS-1 peptide as substrate incubated for 15 mins by ELISA based assay. In general terms: An ELISA detects its analyte on a solid surface through an enzyme-linked reagent.
Experiment [8] has the same target. Put plainly: Inhibition of GSK-3beta (unknown origin) using peptide YRRAAVPPSPSLSRHSSPHQ(pS)EDEEE as substrate incubated for 5 to 60 mins by ADP-Glo kinase assay. (In general: ADP-Glo first removes unused ATP, then detects ADP through luciferase.)
The subject of the next experiment is SH-SY5Y. Put plainly: Neuroprotective activity against human SH-SY5Y cells pretreated for 1 hr followed by muMAbeta42 measured after 72 hrs. It counts as functional, cell-based.
Experiment [9] is described as follows: Inhibition of recombinant rabbit GSK-3beta using peptide YRRAAVPPSPSLSRHSSPHQ(pS)EDEEE as substrate incubated for 10 mins. More on the design: species or system Oryctolagus cuniculus.
The target in experiment [10] is T1, Glycogen synthase kinase-3 beta. Put plainly: Inhibition of human recombinant GSK3-beta.

*1 amine or outer side, *2 acyl side, *3 side chain or, on linkers, in order; H or OH if unused. Where a SMILES comes first, the peptide text is derived from it. [ ]: non-standard residue; d: D form. The star is where a group is joined. X1 = C[C@H](N[*:1])C(=O)C1CCC[C@H]1C(=O)[*:2]; Myristoyl = CCCCCCCCCCCCCC(=O)*

T1 sequence (P49841 whole entry): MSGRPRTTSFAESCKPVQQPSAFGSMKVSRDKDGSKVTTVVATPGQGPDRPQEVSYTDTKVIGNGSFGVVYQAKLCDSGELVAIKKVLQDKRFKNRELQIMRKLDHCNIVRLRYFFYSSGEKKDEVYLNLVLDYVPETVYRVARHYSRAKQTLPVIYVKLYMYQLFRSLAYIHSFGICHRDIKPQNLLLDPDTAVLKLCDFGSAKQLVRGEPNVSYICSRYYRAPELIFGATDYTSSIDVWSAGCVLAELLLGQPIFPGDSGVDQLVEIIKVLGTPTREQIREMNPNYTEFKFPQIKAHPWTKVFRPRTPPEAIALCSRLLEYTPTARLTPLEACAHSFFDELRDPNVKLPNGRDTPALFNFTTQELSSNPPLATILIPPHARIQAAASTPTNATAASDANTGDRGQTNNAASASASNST

As a reminder, the IC50 is the concentration that inhibits the measured activity by half. Take `Cc1ccc(C(=O)CCl)s1`: in experiment [1], the IC50 is more than 100 µM.
In experiment [2], `CCn1sc(=O)n(CC)c1=O` displayed an IC50 of 25 µM.
Take `CCn1sc(=O)n(CC)c1=S`: the IC50 in experiment [2] was found to be 20 µM.
For the compound `Cn1sc(=O)n(-c2cccc3ccccc23)c1=O`, in experiment [2], the IC50 is 3 µM.
In the case of `Cn1sc(=O)n(Cc2ccccc2)c1=O`, the IC50 (in experiment [3]; in [4]; in experiment [5]; at Protein kinase C (PKC)) was more than 100 µM in each case.
`O=C(CCl)c1cc(Cl)c(Cl)s1`: in [1], the IC50 was determined as 3 µM.
Compound `FC(F)(F)c1ccc(/C=N/Nc2nnc3n2N=C(c2ccc(Cl)cc2)CS3)cc1` yielded an IC50 in experiment [6] of 0.883 µM.
In experiment [7], `O=C(O)CCNc1cc(N2CCN(c3ccc(F)cc3)CC2)c2noc3c2c1C(=O)c1ccccc1-3` gave an IC50 of 8 µM.
Turning to `Cn1cc(C2=C(c3coc4ccccc34)C(=O)NC2=O)c2cc(F)ccc21`, the IC50 in experiment [1] was 0.0004 µM.
In [7], `O=C1c2ccccc2-c2onc3c(N4CCN(c5ccc(O)cc5)CC4)cc(NCCP(=O)(O)O)c1c23` registered an IC50 of 1 µM.
For `CN(c1ncnc2[nH]c3cc(Cl)ccc3c12)C1CCCN(C(=O)CC#N)C1` (centres undefined), inhibition in experiment [1] was half-maximal at 2 µM (IC50).
In turn, `O=C(O)c1ccc(N2CCN(c3cc(NCCP(=O)(O)O)c4c5c(onc35)-c3ccccc3C4=O)CC2)cc1` returned an IC50 in experiment [7] of 1 µM.
Turning to `COc1ccc(-c2cc(=O)c3c(OC)c([C@@H]4O[C@H](C(=O)N[C@@H](C)C(F)(F)F)[C@@H](O)[C@H](O)[C@H]4O)c(OC)cc3o2)cc1OC`, in [8], half-maximal inhibition (IC50) was put at 2 µM.
`CC(C)Oc1cccc(-c2ccc3cnc(C(=O)NCC4CCOCC4)n3c2)c1` had a concentration for half-maximal inhibition (IC50) in experiment [1] of 0.072 µM.
Usually EC50 stands for the concentration at which the effect is half-maximal. In turn, `COc1ccc(-c2cc(=O)c3c(OC)c([C@@H]4O[C@H](C(=O)N[C@H](C)C(F)(F)F)[C@@H](O)[C@H](O)[C@H]4O)c(OC)cc3o2)cc1OC` displayed an IC50 in experiment [8] of 0.6 µM. The EC50 with SH-SY5Y worked out at 9 µM.
For the compound `Nc1nccc(CNC(=O)c2ccc3c(c2)/C(=C/Cc2cccc(C(=O)O)c2)C(=O)N3)n1`, half-maximal inhibition in experiment [1] (IC50) was put at 0.003 µM.
In experiment [8], `COc1ccc(-c2cc(=O)c3c(OC)c([C@@H]4O[C@H](C(=O)NC(C)C)[C@@H](O)[C@H](O)[C@H]4O)c(OC)cc3o2)cc1OC` registered an IC50 of 5 µM.
`COc1ccc(-c2cc(=O)c3c(OC)c([C@@H]4O[C@H](C(=O)NCc5ccccc5)[C@@H](O)[C@H](O)[C@H]4O)c(OC)cc3o2)cc1OC` gave an IC50 in experiment [8] of 16 µM.
The compound `COc1ccc(N2CCN(c3cc(NCCC(=O)O)c4c5c(onc35)-c3ccccc3C4=O)CC2)cc1` registered an IC50 in experiment [7] of 18 µM.
The compound `CC(C)Oc1cccc(-c2ccc3[nH]nc(C(=O)NCC4CCOCC4)c3c2)c1` had an IC50 in experiment [1] of 0.004 µM.
Take `C[S+]([O-])CCCCCCN=C=S` (centres undefined): in experiment [1], the IC50 was 70 µM.
For the compound `CCCCCCCCCCCCCC(=O)NCC(=O)N[C@@H](CCCCN)C(=O)N[C@@H](CCC(=O)O)C(=O)N[C@@H](C)C(=O)C1CCC[C@H]1C(=O)N1CCC[C@H]1C(=O)N[C@@H](C)C(=O)N1CCC[C@H]1C(=O)N1CCC[C@H]1C(=O)N[C@@H](C)C(=O)N[C@@H](CO)C(=O)N1CCC[C@H]1C(=O)N1CCC[C@H]1C(N)=O` (some centres undefined) (Myristoyl-GKE[X1]PAPPASPP-NH2), the IC50 in experiment [9] was found to be 40 µM.
With `O=c1cc(-c2ccc(O)c(O)c2)oc2cc(O)c([C@@H]3O[C@H](CO)[C@@H](O)[C@H](O)[C@H]3O)c(O)c12` [ISOORIENTIN], in the experiment with SH-SY5Y, the EC50 came to 47 µM.
On to `COc1cc2c(c(OC)c1OC)-c1c(cc3c(c1OC)OCO3)C[C@@H](C)[C@@H](C)C2` [KADSURANIN], for which the IC50 in [10] came out at 0.081 µM.
The same measure, in the same setting: in the case of `COc1cc2c(c(OC)c1OC)-c1c(cc3c(c1OC)OCO3)C[C@H](C)[C@H](C)C2` [WUWEIZISU B] it was 0.073 µM.
